The results in this text go back to US4491675A, “Hydroformylation process using triarylphosphine and bisphosphine monooxide ligands” (Union Carbide Corporation, priority 1981, dated 1985).

A short description of data set [1]: Continuous propylene hydroformylation, long term catalyst stability (Examples 1 to 13, Table I). The conditions noted are these: for thermal catalyst stability: 130° C., in words, relative comparison of ligand systems of Table I; for Aldehyde Product Reaction Rate, day 4, corrected reaction rate (in parenthesis) / Aldehyde Product Reaction Rate, day 4: day 4 at 130° C.; for Aldehyde Product Reaction Rate, day 4, corrected reaction rate (in parenthesis): corrected with mathematical rate model for standard rhodium-triphenylphosphine catalyst; for % Activity Decline: decline in catalyst activity from Day 1 through Day 4 at 130° C.; for Aldehyde Product Reaction Rate, day 1 / Aldehyde Product Reaction Rate, day 4: observed, total gas about 165 psig, Rh 100 or 200 ppm; for Aldehyde Product Reaction Rate, day 1: day 1 at 130° C.
Protocol: A series of long term catalyst stability experiments were conducted in a glass reactor operating in a continuous propylene hydroformylation mode. The reactor consisted of a three ounce pressure bottle submersed in an oil bath with a glass front for viewing. In each experiment about 20 ml. of a freshly prepared rhodium catalytic precursor solution was charged to the reactor with a syringe after purging the system with nitrogen. Each precursor solution contained from 100 to 200 ppm rhodium calculated as free metal (as noted in Table I below) introduced as rhodium dicarbonyl acetylacetonate, a phosphorus ligand or mixture of phosphorus ligands and a solvent.
After closing the reactor, the system was again purged with nitrogen and the oil bath was heated to furnish the desired hydroformylation reaction temperature. […] The flows of the feed gases (carbon monoxide, hydrogen and propylene) were controlled individually with mass flow meters and the feed gases dispersed into the precursor solution via fritted glass spargers. The unreacted portion of the feed gases stripped out the product aldehydes. […] The product aldehydes for each experiment were analyzed over the first day of continuous operation at 130° C. and over the fourth day of continuous operation at 130° C. and the average reaction rates for each experiment in terms of gram moles per liter per hour of total product aldehydes for the first and fourth days of continuous operation at the average measured partial pressures of hydrogen, carbon monoxide and propylene for said days are given in Table I below.

A short description of data set [2]: Continuous propylene hydroformylation with stepwise CO partial pressure increase, catalyst stability (Examples 14 to 18, Table II). The following applies: for Aldehyde Product Reaction Rate, day 12, corrected reaction rate (in parenthesis): day 12 at 130° C., corrected with mathematical rate model for standard rhodium-triphenylphosphine catalyst; for % Activity Decline: decline in catalyst activity from Day 6 through Day 12 at 130° C.; for Aldehyde Product Reaction Rate, day 6: observed, day 6 at 130° C., total gas about 165 psig, Rh 200 or 300 ppm. The source says: During days 9 to 13 the carbon monoxide partial pressure was increased stepwise from about 10 to 25 psia and returned to about 10 psia for day 14.

Turning to `c1ccc(P(c2ccccc2)c2ccccc2)cc1` [Example 1, (C6 H5)3 P], in data set [1], the thermal catalyst stability entry is recorded as “inferior thermal stability”; the “Aldehyde Product Reaction Rate, day 4, corrected reaction rate (in parenthesis)” value stood at 1.00 g·mol/L/h; the “% Activity Decline” value stood at 42%; the “Aldehyde Product Reaction Rate, day 1” value was found to be 1.74 g·mol/L/h. In data set [1], the “Aldehyde Product Reaction Rate, day 4” value was found to be 1.12 g·mol/L/h.

`O=P(CCP(c1ccccc1)c1ccccc1)(c1ccccc1)c1ccccc1` [Example 9, (C6 H5)2 P(CH2)2 P(O)(C6 H5)2]: in data set [1], the thermal catalyst stability result is on record as “inferior thermal stability”; the “Aldehyde Product Reaction Rate, day 4, corrected reaction rate (in parenthesis)” value amounted to 0.63 g·mol/L/h; the “% Activity Decline” value was 40%; the “Aldehyde Product Reaction Rate, day 1” value amounted to 1.06 g·mol/L/h. In addition, the “Aldehyde Product Reaction Rate, day 4” value in data set [1] was determined as 0.87 g·mol/L/h.

Take `c1ccc(P(c2ccccc2)c2ccccc2)cc1` [Example 14, (C6 H5)3 P]: in data set [2], the “Aldehyde Product Reaction Rate, day 12, corrected reaction rate (in parenthesis)” value is recorded as “.76 gmoles/L hr”; the “% Activity Decline” value turned out to be 32%; the “Aldehyde Product Reaction Rate, day 6” value is 1.12 gmoles/L hr.

Consider (CH3 C6 H4)3 P [Example 3], for which, in data set [1], the “Aldehyde Product Reaction Rate, day 4, corrected reaction rate (in parenthesis)” value worked out at 1.02 g·mol/L/h; the “% Activity Decline” value was determined as 25%; the “Aldehyde Product Reaction Rate, day 1” value stood at 1.36 g·mol/L/h; the “Aldehyde Product Reaction Rate, day 4” value was determined as 1.49 g·mol/L/h.

On to (CH3 O-C6 H4)3 P [Example 16], for which, in data set [2], the “Aldehyde Product Reaction Rate, day 12, corrected reaction rate (in parenthesis)” value came to 1.14 gmoles/L hr; the “% Activity Decline” value was found to be 14%; the “Aldehyde Product Reaction Rate, day 6” value is given as 1.33 gmoles/L hr.

For (CH3 OC6 H4)3 P [Example 5], in data set [1], the “Aldehyde Product Reaction Rate, day 4, corrected reaction rate (in parenthesis)” value amounted to 1.36 g·mol/L/h; the “% Activity Decline” value is given as 13%; the “Aldehyde Product Reaction Rate, day 1” value came to 1.57 g·mol/L/h; the “Aldehyde Product Reaction Rate, day 4” value was determined as 1.68 g·mol/L/h.

With (ClC6 H4)3 P [Example 8], in data set [1], the “Aldehyde Product Reaction Rate, day 4, corrected reaction rate (in parenthesis)” value was “.32 g·mol/L/h”; the “% Activity Decline” value was 46%; the “Aldehyde Product Reaction Rate, day 1” value came to 0.59 g·mol/L/h; the “Aldehyde Product Reaction Rate, day 4” value is 0.49 g·mol/L/h.

Consider CH3 -C6 H4)3 P [Example 15], for which, in data set [2], the “Aldehyde Product Reaction Rate, day 12, corrected reaction rate (in parenthesis)” value amounted to 1.24 gmoles/L hr; the “% Activity Decline” value was found to be 17%; the “Aldehyde Product Reaction Rate, day 6” value came to 1.50 gmoles/L hr.
